Assay results reported in US20250270180A1, “MEK INHIBITORS AND THERAPEUTIC USES THEREOF” (Immuneering Corporation, priority 2020, published 2025).

Key:
[1] = tested on: A549 CRAF BP (MEK phosphorylation); assay: A549-CRAF BP 100 nM, 2 h (pMEK); format: cell-based; settings: Homo sapiens, A549, 2 h, phospho:total ratio normalized to DMSO control
In short: (§1)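 Cells treated in duplicate for 2 h with compound, lysed and protein-normalised (1 mg/mL pERK, 1.5 mg/mL pMEK). Quantitative capillary Western; phospho/total protein ratio normalised to DMSO.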

[2] = Metabolite ID study, rat hepatocytes; format: in vitro ADME; settings: 10 uM compound 9, T=60 min
Method: (§2) Animal Studies: Compound 9 was tested using six species hepatocytes in a metabolite ID study (T=60 min).
(§3) Cryopreserved hepatocytes from a selected species were thawed and incubated in duplicate with 10 uM compound 9 in Krebs-Henseleit buffer. […] Viability of hepatocytes was >70% after thawing.
(§4) (Eppendorf 5804R). […] The disappearance of the parent compound was determined, and the formation of metabolites was evaluated. Metabolites present at >1% of total compound related material (based on peak area) were identified by interpretation of the LC-MS/MS data.
(§5) MS settings were optimized for the flow rate. Full scan spectra were acquired in combination with data dependent MS2.
(§6) The spectra obtained from all samples were screened for the presence of m/z values that are absent in the blank incubations (incubations with hepatocytes without compound and with vehicle control, and incubations of compound in buffer without hepatocytes). T=60 min incubations were used as an initial screening. All possible metabolites observed were semi-quantified by MS response (peak area). MS2 spectra were interpreted to determine possible location of the metabolism reaction. The presence of metabolites identified was compared across the selected species.

A549 pMEK:tMEK (CRAF) = assay: CRAF-bypass pMEK:tMEK, A549; format: cell-based
Method: Materials and Methods: A549 or A375 cells were seeded in 6-well plates at an appropriate seeding density on day 0. On day 2 or 3, after checking the health and confluency of cells, the media was aspirated and replaced with 1 mL media containing a predetermined concentration of compound and incubated for 2 hours. After 2 hours, the media was aspirated, and the cells washed 2 times with cold PBS. Cells were lysed on ice, with 50 uL 1×CST lysis buffer+1 mM PMSF for 5 minutes. After 5 minutes, cells were removed using a scraper and transferred to cold 1.5 mL tubes, and centrifuged for 10 min, 4° C., 14,000×g. Supernatant was gently removed and snap frozen in liquid nitrogen. Protein concentration of the lysate was determined using Bradford Reagent (analyzed using SpectraMax M2E) and diluted to 1 mg/mL or pERK or 1.5 mg/mL for pMEK analysis. Cell lysates were then analyzed for phosphor-ERK/total-ERK levels on a Jess system (ProteinSimple; Cat #JS3346) using the following antibodies: tERK1/2 (CST 4696; 1:50) and pERK1/2 (CST 4377; 1:50). […]
A549 or […] cells were treated in duplicate for two hours with compounds at varying concentrations. […] After storage, the lysate was quantified with the Bradford assay. Before the lysates were prepared to run on the Jess, the lysates were diluted to 1 mg/mL for pERK analysis and 1.5 mg/mL pMEK analysis using quantitative Western blotting. […]

[3] = Metabolite ID study, rabbit hepatocytes; format: in vitro ADME; settings: 10 uM compound 9, T=60 min
Method: as §2, §3, §4, §5, §6

[4] = Metabolite ID study, human hepatocytes; format: in vitro ADME; settings: 10 uM compound 9, T=60 min
Method: as §2, §3, §4, §5, §6

A549 pERK = assay: A549-pERK, 2 h (quantitative Western, Jess); format: cell-based; settings: Homo sapiens, A549, 2 h, phospho:total ratio normalized to DMSO control
In short: as §1

hERG Channel = hERG Channel (Homo sapiens, UniProt Q12809); assay: in vitro
Chain of hERG Channel (Q12809 whole entry): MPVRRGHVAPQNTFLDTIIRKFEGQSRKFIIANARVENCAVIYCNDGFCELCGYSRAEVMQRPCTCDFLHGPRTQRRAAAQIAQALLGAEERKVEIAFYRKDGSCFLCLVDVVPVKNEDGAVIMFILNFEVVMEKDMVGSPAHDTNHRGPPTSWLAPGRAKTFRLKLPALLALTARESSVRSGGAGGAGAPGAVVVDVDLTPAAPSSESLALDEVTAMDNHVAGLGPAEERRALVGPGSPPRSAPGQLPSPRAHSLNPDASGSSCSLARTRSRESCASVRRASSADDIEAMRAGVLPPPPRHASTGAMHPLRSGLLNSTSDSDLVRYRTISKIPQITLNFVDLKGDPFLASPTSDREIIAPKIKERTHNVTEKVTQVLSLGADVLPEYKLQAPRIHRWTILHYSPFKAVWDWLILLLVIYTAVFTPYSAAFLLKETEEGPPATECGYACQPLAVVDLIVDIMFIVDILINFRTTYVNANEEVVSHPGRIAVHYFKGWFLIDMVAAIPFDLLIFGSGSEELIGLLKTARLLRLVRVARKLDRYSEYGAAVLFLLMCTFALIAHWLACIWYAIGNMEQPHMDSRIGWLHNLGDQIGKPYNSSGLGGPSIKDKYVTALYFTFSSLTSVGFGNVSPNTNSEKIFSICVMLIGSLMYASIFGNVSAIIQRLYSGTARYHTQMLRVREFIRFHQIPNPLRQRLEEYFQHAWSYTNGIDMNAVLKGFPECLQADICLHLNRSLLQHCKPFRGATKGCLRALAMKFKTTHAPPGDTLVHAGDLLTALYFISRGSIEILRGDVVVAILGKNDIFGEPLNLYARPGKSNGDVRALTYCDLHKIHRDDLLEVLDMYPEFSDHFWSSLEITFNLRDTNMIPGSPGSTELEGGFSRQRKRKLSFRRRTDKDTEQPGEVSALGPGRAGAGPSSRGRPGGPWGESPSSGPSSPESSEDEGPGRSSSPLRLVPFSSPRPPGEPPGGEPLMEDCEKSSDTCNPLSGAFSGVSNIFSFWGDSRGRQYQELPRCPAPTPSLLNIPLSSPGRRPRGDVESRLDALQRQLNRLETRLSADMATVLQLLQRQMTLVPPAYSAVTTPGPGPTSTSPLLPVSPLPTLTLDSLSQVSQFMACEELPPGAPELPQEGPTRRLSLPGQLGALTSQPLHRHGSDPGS

[5] = Single dose PK profile (plasma and tumor) in Colon26 tumor bearing mice; format: in vivo; settings: female, mouse
Method: Female mice (either athymic BALC/c nude, or BALB/c mice) were inoculated with a single subcutaneous injection of 0.1 ml of mouse Colon-26 cell suspension (1×10^5 cells per animal) in the right flank region. Colon26 (C26) tumor bearing mice received a single dose (3-4 mice/treatment) of vehicle (10% DMSO/90% [20% SBE-B-CD in saline], pH 5) containing compounds at indicated dose by gavage (p.o.) or intravenous administration (i.v.) and at various time points (0.16, 0.5, 1, 2, 4, 8, 12, 16, 24-hour) post dose humanely euthanized. Blood was obtained through cardiac puncture into K+EDTA tubes, mixed by inversion and centrifuged to obtain the plasma. Tissues were excised, cleaned of surrounding tissues. All samples immediately snap frozen in liquid N2 prior to LC-MS/MS analysis (using Agilent Poroshell-120 EC-C18 (4.0 μm) 2.1×50 mm, and a Water+API-4000 Electrospray MS unit). The results of this study are illustrated in FIGS. 16, and 17. Tables 11 describes a single does PK profile (plasma) and Table 12 describes a single dose PK profile (tumor).

[6] = athymic BALB/c nude or BALB/c, iv, 25 mg/kg, plasma, 25 mpk i.v.
[7] = athymic BALB/c nude or BALB/c, po, 25 mg/kg, plasma, 25 mpk p.o.
[8] = athymic BALB/c nude or BALB/c, po, 100 mg/kg, plasma, 100 mpk p.o.
[9] = iv, 25 mg/kg, plasma, 25 mpk i.v.
[10] = iv, 25 mg/kg, tumor, 25 mpk i.v.
[11] = po, 25 mg/kg, plasma, 25 mpk p.o.
[12] = po, 25 mg/kg, tumor, 25 mpk p.o.
[13] = po, 100 mg/kg, plasma, 100 mpk p.o.
[14] = po, 100 mg/kg, tumor, 100 mpk p.o.

With `CNS(=O)(=O)Nc1cccc(Cc2c(CN(C)C)c3ccc(OC(=O)N(C)C)cc3oc2=O)c1F` [Compound 9] the activity at 0.1 µM [1] was 44.9%, the “% of total compound related material based on peak area, Rat” value [2] was 95% and the “CRAF A549 pMEK:tMEK [100 nM; 2 hr]” value (A549 pMEK:tMEK (CRAF)) was 0.47. For the same compound, the “% of total compound related material based on peak area, Rabbit” value [3] was 93%, the “% of total compound related material based on peak area, Human” value [4] was 99% and the activity at 0.01 µM (A549 pERK; 10 nM) was 63%. For the same compound, the activity at 10 µM (A549 pERK; 10 uM) was 1.21%, the IC50 (hERG Channel) was 26.2 µM and the Tmax [5, 6] was 30 min. For the same compound, the half-life [5, 6] was 37.8 min, the bioavailability [5, 7] was 75.6% and the half-life [5, 7] was 79.2 min. It also gave a bioavailability [5, 8] of 192%, a half-life [5, 8] of 73.2 min and an AUC(0-inf) [5, 9] of 5810 ng·h/mL. For the same compound, the AUC(0-t) [5, 9] was 5810 ng·h/mL, the Cmax [5, 9] was 6520 ng/mL and the AUC(0-inf) [5, 10] was 8290 ng·h/mL. For the same compound, the AUC(0-t) [5, 10] was 8280 ng·h/mL, the Cmax [5, 10] was 7790 ng/mL and the Tmax [5, 10] was 30 min. It also gave a half-life [5, 10] of 208 min, an AUC(0-inf) [5, 11] of 4400 ng·h/mL and an AUC(0-t) [5, 11] of 4390 ng·h/mL. The Cmax [5, 11] was 4640 ng/mL, the Tmax [5, 11] was 30 min and the AUC(0-inf) [5, 12] was 4900 ng·h/mL. It also gave an AUC(0-t) [5, 12] of 4890 ng·h/mL, a Cmax [5, 12] of 4580 ng/mL and a Tmax [5, 12] of 30 min. It also gave a bioavailability [5, 12] of 59.1%, a half-life [5, 12] of 76.8 min and an AUC(0-inf) [5, 13] of 44600 ng·h/mL. For the same compound, the AUC(0-t) [5, 13] was 44500 ng·h/mL, the Cmax [5, 13] was 30100 ng/mL and the Tmax [5, 13] was 30 min. The AUC(0-inf) [5, 14] was 51700 ng·h/mL, the AUC(0-t) [5, 14] was 51700 ng·h/mL and the Cmax [5, 14] was 30300 ng/mL. It also gave a Tmax [5, 14] of 30 min, a bioavailability [5, 14] of 156% and a half-life [5, 14] of 118 min.
